Reference: patent publication US7314858B2, “Retrocyclins: antiviral and antimicrobial peptides” (priority 2001, dated 2008)
Changes are numbered by the printed parent chain. “Also recorded” adds a separate entry of the source.

B1: RTD-2: rhesus circular minidefensin, homodimer of two identical nonapeptide elements (SEQ ID NO:17) (peptide, listed as Macaca mulatta)
chain: MRTFALLTAMLLLVALHAQAEARQARADEAAAQQQPGADDQGMAHSFTRPENAALPLSESARGLRCLCRRGVCQLL
modifications: cyclic homodimer of two nonapeptides; SIGNAL (1)...(20)
B2: RTD-3: rhesus circular minidefensin, homodimer of two identical nonapeptide elements (SEQ ID NO:15) (peptide, listed as Macaca mulatta)
chain: B1 chain with A38T, R49W, R62K, L67I, R69T, V72F, Q74R
modifications: cyclic homodimer of two nonapeptides; SIGNAL (1)...(20)

How the values were obtained:
HIV-1 strain JR-CSF = assay: HIV-1 JR-CSF infection of CD4+ PBMC, p24 antigen ELISA; assay type: cell-based; conditions: JR-CSF (R5), peptide 10-20 μg/ml
Method: FIG. 5A-C. Anti-HIV-1 activity of retrocyclin. Two strains of HIV-1 and two types of human target cells were used. The IIIB strain is T-cell tropic (X4) and utilizes the CXCR4 co-receptor for entry; the JR-CSF strain is M-tropic (R5) and uses CCR5 for entry. PBMC signifies CD4^+-selected peripheral blood mononuclear cells. […] (A) Two concentrations of retrocyclin (2 μg/ml, 20 μg/ml), 20 μg/ml of the Rhesus circular defensin “RTD-1”, and 20 μg/ml of a horseshoe crab-derived peptide “T140”, reported to only prevent X4 infections, were tested in antiviral assays of against strain IIIB in H9 cells (n=2-6 per peptide; error bars indicate SEM). (B) To confirm our results with primary human cells, similar assays were performed utilizing IIIB virus and CD4^+ PBMC or (C) JR-CSF virus and CD4^+ PBMC. Peptides were not cytotoxic at indicated concentrations, measured by trypan blue exclusion. Average of duplicate experiments are reported for studies with PBMCs. Assay sensitivity=10 pg/ml.
(§1) Either HIV-1-permissive H9 cells were used as targets, or primary CD4^+ lymphocytes from HIV-1-seronegative donors generated from freshly purified peripheral blood mononuclear cells (PBMC) stimulated with a CD3-CD8 bispecific monoclonal antibody. After approximately 7 days, when 98% of these cells co-expressed CD3 and CD4, they were infected with HIV-1 with or without retrocyclin or other test peptide. These cells were maintained in RPMI containing 10% FCS supplemented with 2 mM glutamine, 100 U of penicillin/ml, 10 μg of streptomycin/ml, and 50 U of interleukin 2/ml (R10-50 media).
The p24 assay results shown in FIG. 9 are on a logarithmic scale. A horizontal reference line that passes through 100 on the ordinate scale corresponds to […] of p24 antigen. Results from 3 experiments (each performed with PBMC from a different donor) are shown.

HIV-1 strain IIIB [1] = assay: HIV-1 IIIB infection of CD4+ PBMC, p24 antigen ELISA; assay type: cell-based; conditions: CD4+ PBMC, IIIB (X4), peptide 10-20 μg/ml
Method: FIG. 5A-C. Anti-HIV-1 activity of retrocyclin. Two strains of HIV-1 and two types of human target cells were used. The IIIB strain is T-cell tropic (X4) and utilizes the CXCR4 co-receptor for entry; the JR-CSF strain is M-tropic (R5) and uses CCR5 for entry. PBMC signifies CD4^+-selected peripheral blood mononuclear cells. […] (A) Two concentrations of retrocyclin (2 μg/ml, 20 μg/ml), 20 μg/ml of the Rhesus circular defensin “RTD-1”, and 20 μg/ml of a horseshoe crab-derived peptide “T140”, reported to only prevent X4 infections, were tested in antiviral assays of against strain IIIB in H9 cells (n=2-6 per peptide; error bars indicate SEM). (B) To confirm our results with primary human cells, similar assays were performed utilizing IIIB virus and CD4^+ PBMC or (C) JR-CSF virus and CD4^+ PBMC. […] Average of duplicate experiments are reported for studies with PBMCs. Assay sensitivity=10 pg/ml.
Either HIV-1-permissive H9 cells were used as targets, or primary CD4^+ lymphocytes from HIV-1-seronegative donors generated from freshly purified peripheral blood mononuclear cells (PBMC) stimulated with a CD3-CD8 bispecific monoclonal antibody. […] These cells were maintained in RPMI containing 10% FCS supplemented with 2 mM glutamine, 100 U of penicillin/ml, 10 μg of streptomycin/ml, and 50 U of interleukin 2/ml (R10-50 media).
Examining the effect of adding retrocyclin at various times pre- and post-HIV-1 infection. […] Primary CD4^+ PBMC were incubated with HIV-IIIB (FIG. 6) or HIV-JR-CSF for 3 hours in the presence or absence of 20 μg/ml retrocyclin. The cells were subsequently washed in media, and incubated an additional 9 days. Retrocyclin (20 μg/ml) was added back to some of the cultures at time points specified in FIG. 6 and infection was monitored by p24 ELISA as previously described. […]

HSV-2 = assay: HSV inactivation microplate assay on ME-180 cells (MTT); assay type: cell-based; conditions: 2-50 μg/ml, 2 hrs with virus, 72 hrs culture
Method: FIG. 14. Inactivation of HSV-1 and HSV-2 by retrocyclin and RC-101. Retrocyclin (left panel) and RC-101 (right panel) at the indicated concentrations were incubated with herpes simplex virus, type 1 (HSV-1) or HSV-2 for 2 hrs and then added to ME-180 cell monolayers. Cells were incubated at 37° C. for 72 hrs, and cytotoxicity was measured with an MTT kit.
Some retrocyclins are slightly active against herpes simplex virus (HSV). To determine if the activity of retrocyclin against HIV-1 was specific or representative of a more global antiviral effect, it was tested its ability to prevent HSV infection in vitro. A quantitative microplate assay was used to screen retrocyclin and retrocyclin-congeners for their ability to inactivate HSV type 1 (HSV-1) and HSV-2. The assay utilized small amounts of peptide and simultaneously evaluated for peptide-induced cytotoxicity. In brief, final peptide concentrations of 2-50 μg/ml were incubated with virus stocks for 2 hrs and added directly to ME-180 human cervical carcinoma cells. Cultures were incubated at 37° C. for 72 hrs and cytotoxicity was measured using a 3-(4,5-dimethylthiazon-2-yl)-2,5-diphenyltetrazolium bromide (MTT) cell proliferation kit (Boehringer-Mannheim, Germany). Calculations to assess antiviral activity and compute “percent protection” are delineated in (90).

primary HIV-1 isolates = conditions: previous assays; included as negative control
Text: Viral isolates. Primary HIV-1 isolates were obtained from Institutional Review Board-approved Centers for Disease Control and Prevention (CDC) Studies or from the National Institutes of Health Research and Reference Reagent Program and World Health Organization collaborative network. Detailed characteristics of the CDC isolates, including subtype determination based on the envelope region, and co-receptor usage using GHOST cell lines have been described elsewhere. For viruses obtained from the NIH Research and Reference Reagent Program, the reported subtype and co-receptor data were used as supplied. Viral stocks were generated by infecting CD8-depleted normal human peripheral blood mononuclear cells. After filtration through 0.22-μm filters, aliquots of the stocks were stored at −70° C. until used.
Reporter gene-based viral replication assay. JC53-BL cells, an HIV-1 reporter cell line derived from HeLa cells that expresses high levels of CD4 and the HIV co-receptors CXCR4 and CCR5, were a gift of Tranzyme Inc. (Birmingham, Ala.). The JC53-BL cells contain cassettes for luciferase and β-galactosidase, each driven by the HIV-1 LTR. HIV infection (tat production) can be detected either by measuring luciferase activity or by counting blue foci after staining the cells with “X-Gal” (5-Bromo-4-chloro-3-indolyl β-D-galactopyranoside), as described elsewhere in detail. The JC53-BL cells were maintained in Dulbecco's modified Eagle medium supplemented with 10% fetal calf serum. (HyClone, Logan, Utah), 2 mM glutamine (Gibco), 100 units per ml penicillin G and 100 μg/ml streptomycin (GIBCO™, Invitrogen Corp., San Diego, Calif.). Viral titers were determined by adding serial dilutions of the virus stocks, in triplicate, to wells containing 20,000 JC53-BL cells, after supplementing the above medium with 40 μg/ml DEAE (diethylaminoethyl)-dextran. After a 48 hour incubation at 37° C. in 5% CO2, the cells were fixed and stained for β galactosidase, and the blue foci were counted with a light microscope. Multiplicity of infection (MOI) values were taken from the infectious unit data.
In vitro infections were carried out in the presence or absence of θ-defensin peptides. Briefly, JC53-BL cells were harvested from T-150 flasks approximately 18 hours prior to starting the assay with 0.1 mM EDTA in 0.017 M PBS, pH 7.4. The cells were washed and transferred to sterile white 96-well plates (Thermo Labsystems, Franklin, Mass.) at a density of 20,000 cells in 50 μl of medium. […] After this 3-hour preincubation with peptides, viruses were added in media containing 40 μg/ml DEAE-dextran. The final volume was 200 μl per well, and the multiplicity of infection (viruses/cell) ranged from 0.009 to 0.65. After the plates had incubated at 37° C. in 5% CO2 for 48 hours, luciferase activity was measured with the Steady-Glo Luciferase Assay System (Promega, Madison, Wis.), using the manufacturer's lysis protocol. Relative light intensity was measured with a Tecan luminometer running Magellan software (Tecan, Research Triangle Park, N.C.) and reported as relative light units (RLU). Each plate contained three sets of quadruplicate controls: media-only (background), virus-only (peptide-free), and recombinant luciferase. Samples were run in duplicate and the % inhibition was calculated from the mean values using the formula: % Inhibition=1−(average RLU peptide+virus wells/average RLU virus only wells)×100.
Fifty-percent inhibitory concentration values (IC50) were calculated using the predicted exponential growth function in Microsoft Excel, which uses known x-y values to estimate a given x value (in this case concentration of peptide) that would correspond to a given y value (in this case IC50). Statistical comparisons were by paired t-tests, unless otherwise noted.

HIV-1 strain IIIB [2] = assay: HIV-1 IIIB infection of H9 cells, p24 antigen ELISA; assay type: cell-based; conditions: H9 cells, IIIB (X4), peptide 10-20 μg/ml
Method: FIG. 1. Circular minidefensins reduce HIV-1 infection of H9 cells. HIV-I strain IIIB (MOI=10^−2) was incubated with 2.5×10^5 H9 cells in the presence or absence of 20 μg/ml RTD-1, RTD-2 or RTD-3. p24 antigen release was monitored by ELISA on days 3, 6, and 9. Assay sensitivity=10 pg/ml.
Immortalized CD4^+ H9 cells, which are permissive for infection with this strain, were maintained in RPMI supplemented with 10% heat-inactivated fetal calf serum (FCS), 10 mM HEPES, 2 mM glutamine, 100 U of penicillin/ml, and 10 μg of streptomycin/ml (R10 media). Cells (2.5×10^5/100 μl) were incubated with virus (multiplicity of infection (MOI)=10^−2) in the presence or absence of 20 μg/ml RTD-1, RTD-2 or RTD-3 for 3 hrs at 37° C./5% CO2. The cells were washed in R10 media, seeded in 48-well tissue culture plates in 1 ml R10 media, and incubated at 37° C./5% CO2 for 9 days. Aliquots of cell supernatant were removed at the specified time points and analyzed by a sensitive ELISA (DuPont NEN) that quantitates p24 antigen of HIV-1. The three circular rhesus minidefensins were similarly active, inhibiting HIV-1 by 100-1000 fold by 9 days post-inoculation (note the logarithmic scale).
as §1
Mature retrocyclin was prepared by a three-step process.

Molecule	inhibition of HIV-1 replication (p24) (HIV-1 strain JR-CSF)	inhibition of HIV-1 replication (p24) (HIV-1 strain IIIB [1])	protection against HSV-2 (HSV-2)	anti-HIV activity (primary HIV-1 isolates)	inhibition of HIV-1 replication (p24) (HIV-1 strain IIIB [2])
I2Y-Retrocyclin (cyclo(GYCRCICGRGICRCICGR); disulfide (positions not given here); ring closure inferred; not fully specified (bridges)) [RC-104, cyclic …]	considerable ability to protect cells; also recorded: substantial activity	relatively ineffective	–	–	–
I6Y-Retrocyclin (cyclo(GICRCYCGRGICRCICGR); disulfide (positions not given here); ring closure inferred; not fully specified (bridges)) [RC-102, cyclic …]	considerable ability to protect cells; also recorded: substantial activity	either inactive or only modestly active; also recorded: relatively ineffective	less antiviral than retrocyclin	–	–
R4Y-Retrocyclin [RC-106]	lack of efficacy	either inactive or only modestly active; also recorded: lack of efficacy	–	little or no anti-HIV activity	–
R9Y-Retrocyclin [RC-107]	lack of efficacy	lack of efficacy	–	–	–
R13Y-Retrocyclin (cyclo(GICICICGRGICYCICGR); disulfide (positions not given here); ring closure inferred; not fully specified (bridges)) [RC-108]	lack of efficacy	either inactive or only modestly active; also recorded: lack of efficacy	–	–	–
B1	–	–	–	–	protective to a lesser extent than retrocyclin
B2	–	–	–	–	protective to a lesser extent than retrocyclin
